Experimental data reported in patent US20250230193A1, “CYCLIC COMPOUND HAVING SELECTIVE KRAS INHIBITORY EFFECT ON HRAS AND NRAS” (CHUGAI SEIYAKU KABUSHIKI KAISHA, priority 2022, published 2025).
*1 amine or outer side, *2 acyl side, *3 side chain or, on linkers, in order; H or OH if unused. Where a SMILES comes first, the peptide text is derived from it. Bridges are numbered along the chain shown (N, C = ends). [ ]: non-standard residue; d: D form. The star is where a group is joined. hPhe(3-Cl-4-CF3) = N[C@@H](CCc1ccc(C(F)(F)F)c(Cl)c1)C(=O)O; X23 = CC(C)CN([C@@H](Cc1ccc(C(F)(F)F)cc1)C(=O)[*:2])[*:1]; NPrPhe(4-CF3) = CCCN[C@@H](Cc1ccc(C(F)(F)F)cc1)C(=O)O; NMeGly(cPent) = CN[C@H](C(=O)O)C1CCCC1; Hyp = O=C(O)[C@@H]1C[C@@H](O)CN1; NMeD = CN[C@@H](CC(=O)O)C(=O)O; NMeL = CN[C@@H](CC(C)C)C(=O)O; Morpholide = C1CN(*)CCO1; NMeA = CN[C@@H](C)C(=O)O; Ac5c = NC1(C(=O)O)CCCC1; Aze = O=C(O)[C@@H]1CCN1; Ac4c = NC1(C(=O)O)CCC1; NEtG = CCNCC(=O)O; Sar = CNCC(=O)O

Tests used:
[1] = biological target: GDP-bound HRAS wild-type protein (Homo sapiens, UniProt P01112); test: Binding to HRAS by surface plasmon resonance (SPR), Single Cycle Kinetics; details: SPR; for HRAS/KRAS (ratio of KD value with respect to GDP-bound HRAS wild-type protein to KD value with respect to KRAS): GDP-bound wild-type proteins
Sequence of GDP-bound HRAS wild-type protein (P01112 whole entry): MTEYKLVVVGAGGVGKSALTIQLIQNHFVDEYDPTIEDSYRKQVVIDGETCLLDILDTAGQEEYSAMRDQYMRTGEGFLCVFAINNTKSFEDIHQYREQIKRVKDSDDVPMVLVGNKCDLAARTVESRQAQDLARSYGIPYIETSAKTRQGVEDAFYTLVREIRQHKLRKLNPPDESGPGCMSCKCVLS

[2] = biological target: GDP-bound NRAS wild-type protein (Homo sapiens, UniProt P01111); test: Binding to NRAS by surface plasmon resonance (SPR), Single Cycle Kinetics; details: SPR; for NRAS/KRAS (ratio of KD value with respect to GDP-bound NRAS wild-type protein to KD value with respect to KRAS): GDP-bound wild-type proteins
Sequence of GDP-bound NRAS wild-type protein (P01111 whole entry): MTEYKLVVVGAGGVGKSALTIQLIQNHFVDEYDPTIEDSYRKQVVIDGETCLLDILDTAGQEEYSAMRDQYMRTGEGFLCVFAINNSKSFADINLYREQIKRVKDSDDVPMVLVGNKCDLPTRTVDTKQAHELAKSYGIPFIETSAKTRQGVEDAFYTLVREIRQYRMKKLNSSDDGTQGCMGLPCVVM

[3] = GDP-bound HRAS wild-type vs GDP-bound KRAS wild-type
[4] = GDP-bound NRAS wild-type vs GDP-bound KRAS wild-type

CCCN1C(=O)CN(C)C(=O)CN(CC)C(=O)[C@H]([C@@H](C)CC)NC(=O)[C@H](CC(C)C)N(C)C(=O)C[C@@H](C(=O)N2CCOCC2)NC(=O)[C@H](C2CCCC2)N(C)C(=O)C2(CCC2)NC(=O)[C@@H]2C[C@@H](OCC)CN2C(=O)[C@H](CCc2ccc(C(F)(F)F)c(Cl)c2)NC(=O)CN(C)C(=O)[C@@H]1Cc1ccc(C(F)(F)F)cc1 [PP0336] ([NMeL]I[NEtG][Sar][NPrPhe(4-CF3)][Sar][hPhe(3-Cl-4-CF3)][Hyp](Et)[Ac4c][NMeGly(cPent)]D-Morpholide; lactam N-11)
HRAS/KRAS (ratio of KD for GDP-bound HRAS wild-type to KD for KRAS) [1]: B (a compound having 3 or more and less than 10 is denoted as B) | NRAS/KRAS (ratio of KD for GDP-bound NRAS wild-type to KD for KRAS) [2]: B (a compound having 3 or more and less than 10 is denoted as B)

CC[C@H](C)[C@@H]1NC(=O)[C@H](CC(C)C)N(C)C(=O)C[C@@H](C(=O)N2CCOCC2)N(C)C(=O)[C@H](C2CCCC2)N(C)C(=O)C2(CCCC2)NC(=O)[C@@H]2CCCN2C(=O)[C@H](CCc2ccc(C(F)(F)F)c(Cl)c2)NC(=O)CN(C)C(=O)[C@H](Cc2ccc(C(F)(F)F)cc2)N(CC(C)C)C(=O)[C@@H]2CCN2C(=O)[C@H](C)N(C)C1=O [PP0107] ([NMeL]I[NMeA][Aze][X23][Sar][hPhe(3-Cl-4-CF3)]P[Ac5c][NMeGly(cPent)][NMeD]-Morpholide; lactam N-11)
HRAS/KRAS (ratio of KD for GDP-bound HRAS wild-type to KD for KRAS) [1]: C (A compound having a KD ratio of 0.1 or more and less than 3 is denoted as C) | NRAS/KRAS (ratio of KD for GDP-bound NRAS wild-type to KD for KRAS) [2]: C (A compound having a KD ratio of 0.1 or more and less than 3 is denoted as C)

CC[C@H](C)[C@@H]1NC(=O)[C@@H]2CCCCCc3ccc(cc3)C[C@@H](C(=O)N(C)CC(=O)N[C@@H](CCc3ccc(C(F)(F)F)c(OC)c3)C(=O)N3CC4(CC4)C[C@H]3C(=O)NC3(CC(C)(C)C3)C(=O)N(C)[C@@H](C3CCCC3)C(=O)N(C)[C@H](C(=O)N(C)C)CC(=O)N2C)N2CC/C=C\C[C@@H](C2=O)N(C)C(=O)CN(C)C1=O [PP3074]
HRAS/KRAS (ratio of KD value with respect to GDP-bound HRAS wild-type protein to KD value with respect to KRAS) [1]: A (a compound having 10 or more and less than 20 is denoted as A) | NRAS/KRAS (ratio of KD value with respect to GDP-bound NRAS wild-type protein to KD value with respect to KRAS) [2]: A (a compound having 10 or more and less than 20 is denoted as A)

CCC(CC)[C@H]1C(=O)N(C)[C@H](C(=O)N(C)C)CC(=O)N(C)[C@@H](CC2CC2)C(=O)N[C@@H]([C@@H](C)CC)C(=O)N(C)CC(=O)N(C)[C@H]2C/C=C\CCN(C2=O)[C@@H](CC2CCC(F)(F)CC2)C(=O)N(C)CC(=O)N[C@@H](CCc2cc(F)c(C(F)(F)F)c(F)c2)C(=O)N2C[C@@H](C)C[C@H]2C(=O)NC2(CC(C)(C)C2)C(=O)N1C [PP2500]
HRAS/KRAS (ratio of KD value with respect to HRAS to KD value with respect to KRAS) [1, 3]: A (a compound having 10 or more and less than 20 is denoted as A) | NRAS/KRAS (ratio of KD value with respect to NRAS to KD value with respect to KRAS) [2, 4]: A (a compound having 10 or more and less than 20 is denoted as A)

CCCN(C)C(=O)[C@@H]1CC(=O)N(C)[C@@H](CCOC)C(=O)N[C@@H]([C@@H](C)CC)C(=O)N(C)CC(=O)N(C)[C@H]2C/C=C\CCN(C2=O)[C@@H](Cc2ccc(C(F)(F)F)cc2)C(=O)N(C)CC(=O)N[C@@H](CCc2ccc(C(F)(F)F)c(OC)c2)C(=O)N2C[C@H](OCC)C[C@H]2C(=O)NC2(CCC2)C(=O)N(C)[C@@H](C2CCCC2)C(=O)N1C [PP2018]
HRAS/KRAS (ratio of KD value for HRAS to KD value for KRAS) [1, 3]: B (a compound having 3 or more and less than 10 is denoted as B) | NRAS/KRAS (ratio of KD value for NRAS to KD value for KRAS) [2, 4]: A (a compound having 10 or more and less than 20 is denoted as A)

CCO[C@@H]1C[C@H]2C(=O)NC3(CC(C)(C)C3)C(=O)N(C)[C@@H](C3CCCC3)C(=O)N(C)[C@H](C(=O)N(C)C)CC(=O)N(C)[C@@H](CC(C)C)C(=O)N[C@@H]([C@@H](C)CC)C(=O)N(C)CC(=O)N(C)[C@H]3C/C=C\CCN(C3=O)[C@@H](Cc3ccc(C(F)(F)F)cc3)C(=O)N(C)CC(=O)N[C@@H](CCc3cc(F)c(Cl)c(F)c3)C(=O)N2C1 [PP1761]
HRAS/KRAS (ratio of KD value for HRAS to KD value for KRAS) [1, 3]: A (a compound having 10 or more and less than 20 is denoted as A) | NRAS/KRAS (ratio of KD value for NRAS to KD value for KRAS) [2, 4]: A (a compound having 10 or more and less than 20 is denoted as A)

CCC[C@H]1C(=O)N[C@@H](C2CCOCC2)C(=O)N(C)CC(=O)N(C)[C@H]2C/C=C\CCN(C2=O)[C@@H](Cc2ccc(C(F)(F)F)cc2)C(=O)N(C)CC(=O)N[C@@H](CCc2ccc(C(F)(F)F)c(Cl)c2)C(=O)N2C[C@H](OCC)C[C@H]2C(=O)NC2(CC(C)(C)C2)C(=O)N(C)[C@@H](C2CCCC2)C(=O)N(C)[C@H](C(=O)N(C)C)CC(=O)N1C [PP3000]
HRAS/KRAS (ratio of KD value with respect to GDP-bound HRAS wild-type protein to KD value with respect to KRAS) [1]: A (a compound having 10 or more and less than 20 is denoted as A) | NRAS/KRAS (ratio of KD value with respect to GDP-bound NRAS wild-type protein to KD value with respect to KRAS) [2]: AA (a compound having 20 or more is denoted as AA)
